# Results taken from patent US20120003191A1, “VALPROIC ACID, DERIVATIVES, ANALOGUES, AND COMPOSITIONS INCLUDING SAME AND METHODS FOR THEIR THERAPEUTIC USE” (priority 2009, published 2012).
# What was measured:
# Akt = assay: Western blotting of activated and total Akt in α7+/− myotubes; assay type: cell-based, mouse
# Protocol: α7^+/− myogenic cells were cultured on 1% gelatin-coated plastic plates in Ham's F-10 growth medium (20% FBS, 0.5% chick embryo extract, 5 ng/ml bFGF, 2 mM glutamine, 100 U/ml penicillin and 100 μg/ml streptomycin). After six passages, cells were grown in DMEM containing 20% FBS, 0.5% chick embryo extract, 2 mM glutamine, 100 U/ml penicillin and 100 μg/ml streptomycin. Differentiation was induced by switching the medium to DMEM containing 2% horse serum and antibiotics when cells attained 90% confluence. […] Wortmannin was used at 100 nM and added fresh every 24 hours.
# (§1) To test whether Akt activation by VPA in α7^+/− myotubes is dependent on PI3K, α7^+/− cells were differentiated for 48 hours and treated for 72 hours with 2 mM VPA with or without 100 nM Wortmannin. Fresh drugs were added every 24 hours. Phase-contrast micrographs of the cultures were captured at the end of 72 hours of treatment. To determine status of Akt activation in the cultures, α7^+/− myotubes were treated as above and protein extracts were made at the end of 72 hours of treatment using a 2% Triton X-100 extraction buffer (see below). Immunoblotting for phospho- and total Akt were done as detailed below.
# Cell lysates of differentiating cells on 60 mm dishes were prepared as follows: the cells were washed twice with PBS and 200 μl Triton X-100 lysis buffer (2% Triton X-100, 20 mM Tris-Cl, pH 7.4, 150 mM NaCl, 1 mM EDTA, 1 mM EGTA, 2.5 mM NaPPi, 1 mM β-glycerophosphate, 1 mM sodium vanadate, 1:200 Protease Inhibitor Cocktail (EMD Chemicals, San Diego, Calif.) and 1 mM PMSF) were added. The cells were scraped and transferred into Eppendorf tubes, the cell suspensions were triturated and centrifuged at 8000×g at 4° C. for 10 minutes, and the supernatants were collected. Lysates from mouse skeletal muscle were prepared as follows: the quadriceps muscles were dissected out, snap-frozen in liquid nitrogen and pulverized using a mortar and pestle. The powdered muscles were collected in Eppendorf tubes, 500 μl of Triton X-100 lysis buffer were added, rotated at 4° C. for 30 minutes, centrifuged at 8000×g for 10 minutes and the supernatants were collected. Protein concentrations were determined by the Bradford assay. SDS extracts of muscle were made by boiling powdered muscle in extraction buffer (100 mM Tris-Cl, pH 8.0, 10% SDS, 10 mM EDTA and 10% glycerol) for 10 minutes, vortexing vigorously, and centrifuging at 8000×g for 10 minutes. The supernatants were collected and protein concentrations were determined spectrophotometrically at OD260 and OD280. SDS-PAGE was carried out using 50 μg of protein for each sample and separated proteins were transferred to nitrocellulose membranes. For western blotting using antibodies against signaling proteins, membranes were blocked in 5% BSA in TBST for 2 hours at room temperature. For all other blots, incubations were done in 5% milk in TBST overnight at 4° C. The membranes were incubated overnight at 4° C. with primary antibodies diluted 1:1000 in 1% BSA in TBST. After washing in 1% BSA in TBST, blots were incubated for 1 hour in HRP-conjugated secondary antibodies diluted 1:5000 in 1% BSA in TBST. Blots were processed using the ECL kit (Amersham Biosciences, Piscataway, N.J.) and bands were visualized with Kodak Biomax MR film (Kodak, Rochester, N.Y.). ImageQuant analysis software (Molecular Dynamics, Sunnyvale, Calif.) was used to quantify band intensity.
# α7A integrin = assay: Western blotting of α7A integrin in α7+/− myotubes; assay type: cell-based, mouse; details: 2 mM VPA for 72 hours
# Protocol: (§2) α7^+/− myogenic cells were cultured on 1% gelatin-coated plastic plates in Ham's F-10 growth medium (20% FBS, 0.5% chick embryo extract, 5 ng/ml bFGF, 2 mM glutamine, 100 U/ml penicillin and 100 μg/ml streptomycin). After six passages, cells were grown in DMEM containing 20% FBS, 0.5% chick embryo extract, 2 mM glutamine, 100 U/ml penicillin and 100 μg/ml streptomycin. Differentiation was induced by switching the medium to DMEM containing 2% horse serum and antibiotics when cells attained 90% confluence. After 48 hours of differentiation, 2 mM VPA was added and supplied fresh every 24 hours. Wortmannin was used at 100 nM and added fresh every 24 hours.
# (§3) Cell lysates of differentiating cells on 60 mm dishes were prepared as follows: the cells were washed twice with PBS and 200 μl Triton X-100 lysis buffer (2% Triton X-100, 20 mM Tris-Cl, pH 7.4, 150 mM NaCl, 1 mM EDTA, 1 mM EGTA, 2.5 mM NaPPi, 1 mM β-glycerophosphate, 1 mM sodium vanadate, 1:200 Protease Inhibitor Cocktail (EMD Chemicals, San Diego, Calif.) and 1 mM PMSF) were added. […] Protein concentrations were determined by the Bradford assay. […] The supernatants were collected and protein concentrations were determined spectrophotometrically at OD260 and OD280. […] ImageQuant analysis software (Molecular Dynamics, Sunnyvale, Calif.) was used to quantify band intensity.
# ERK = assay: Western blotting of activated ERK in α7+/− myotubes; assay type: cell-based, mouse; details: VPA treated myotubes
# Protocol: as §2, §3
# mdx/utrn−/− mice = assay: Contracture assay in mdx/utrn−/− mice; assay type: in vivo, mouse; details: 35th day of treatment
# Protocol: mdx/utrn−/− mice lack both dystrophin and utrophin, and were bred and genotyped as reported in Burkin, et al., Enhanced expression of the alpha 7 beta 1 integrin reduces muscular dystrophy and restores viability in dystrophic mice, J. Cell Biol. 152:1207-18 (2001). 240 mg/kg body weight of VPA was injected intraperitoneally twice daily into mdx/utrn^−/− mice (n=9) starting at 3 weeks of age, for a period of 5 weeks. Control mice were injected with saline (n=9). Body-weights were determined daily. On the 35th day of treatment, mdx/utrn^−/− mice injected with saline (n=9) or VPA (n=9) were tested for contractures in their hind limbs as follows: mice were placed on a flat table and were lifted by their tails so that their fore-limbs touched the table-surface and their hindquarters were in air. The positions of the hind-limbs were photographed. Normally, mice in this position extend their hind-limbs. The presence of contractures in dystrophic mice prevents full extension.
# α7B integrin = assay: Western blotting of α7B integrin in α7+/− myotubes; assay type: cell-based, mouse; details: 2 mM VPA for 72 hours
# Protocol: as §2, §3
# mTOR = assay: Western blotting of activated mTOR in α7+/− myotubes; assay type: cell-based, mouse; details: VPA for 48 or 72 hours
# Protocol: as §2, §3
# α7+/− myotubes = assay: Quantification of myotube hypertrophy; assay type: cell-based, mouse
# Protocol: as §2
# […] The cells were stained with anti-myosin heavy chain antibody (MF-20, 1:3 in 1% BSA in PBS) and FITC-conjugated donkey anti-mouse secondary antibody (1:200 in 1% BSA in PBS) for 1 hour each, and mounted in Vectashield with DAPI (Vector Laboratories, Burlingame, Calif.). Micrographs of ten fields were taken for VPA-treated and control myotubes using a Leica DMRXA2 microscope (Leica Microsystems, Germany), AxioCam digital camera (Zeiss Inc., Thorwood, N.Y.) and Openlab software (Improvision, Lexington, Mass.). Areas of myosin heavy chain positive myotubes were measured using Openlab software and the numbers of nuclei in each myotube were counted.
# as §1
compound,measurement,setting,value
"CCCC(CCC)C(=O)O [VPA, valproic acid]","levels of activated Akt, time course","Akt; 2 mM VPA daily, extracts every 24 hours up to 144 hours",higher levels of activated Akt at all time-points
same,concentration of maximal Akt activation,Akt; 1 hour exposure,30 mM
same,levels of activated Akt,Akt; VPA for 48 or 72 hours,higher levels
same,higher levels of Akt in VPA treated cultures,Akt; beyond 96 hours,2 to 3 fold
same,time to Akt activation,"Akt; various concentrations of VPA, two-day old differentiating cultures",≤ 1 h
same,α7A integrin isoform increase,α7A integrin,2 fold
same,levels of activated ERK,ERK,significantly lower levels
same,proportion of mice with contractures,"mdx/utrn−/− mice; 240 mg/kg i.p. twice daily, n=9",11.1%
same,"proportion with contractures, saline-injected group higher compared to VPA-injected group",mdx/utrn−/− mice,approximately 4 fold
same,α7B integrin isoform increase,α7B integrin,1.5 fold
same,levels of activated mTOR,mTOR,higher levels
same,number of nuclei per myotube compared to untreated controls,α7+/− myotubes; 2 mM VPA,greater numbers of nuclei per myotube
same,"myotube area per nucleus, greater than control","α7+/− myotubes; 2 mM VPA, 72 hours",1.6 fold
same,myotube size compared to controls (micrographs),"α7+/− myotubes; 2 mM VPA, 72 hours",larger compared to controls
same,myotube size compared to controls after 1 hour exposure,"α7+/− myotubes; 30 mM VPA for 1 hour, observed 72 hours later",larger compared to controls
